Activity calls are given as the source filed them.
What was measured:
[1] = biological target: Eukaryotic translation initiation factor 4H (Homo sapiens, UniProt Q15056); assay: inhibitors of translation initiation factor eIF4H – SAR follow-up (AID 435011); type: functional
[2] = biological target: Polyadenylate-binding protein 1 (Homo sapiens, UniProt P11940); assay: PABP inhibition in translation initiation, SAR follow-up (AID 435018); type: functional
[3] = biological target: Hexokinase (Trypanosoma brucei, UniProt Q38C41); assay: Confirmation assay for inhibitors of Trypanosoma brucei hexokinase 1-Analogue-first series. [Related pubchem assays (depositor defined):AID1430, AID1632, AID2516, AID2560, AID2579, AID2600, AID449725, AID492951]; type: functional
[4] = biological target: Trypsin (Sus scrofa, UniProt P00761); assay: trypsin protease activity blockade – biochemical, quenched peptide fluorescence, cherry-pick, selectivity assay for Rce1 protease inhibitor project, dose response (AID 488789)
[5] = biological target: CAAX prenyl protease 2 (Saccharomyces cerevisiae S288c, UniProt Q03530); type: biochemical
[6] = Luminescence Cell-Based Dose Retest to Confirm Inhibitors of Cancer Stem Cells. [Related pubchem assays (depositor defined):AID2717, AID2721]; type: functional; conditions: Homo sapiens
[7] = general cell-killing toxicity readout – plate reader, dry powder samples, cytotoxicity control for PAX8 inhibitor project, dose response (AID 743021); type: functional, cell-based
[8] = system: INS1; assay: INS-1E survival protection against cytokine death – cell-based, luminescence, retest, dose response (AID 449756); type: functional; conditions: Rattus norvegicus;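 note: cell death triggered by IL-1 beta plus TNF-alpha plus IFN-gamma mixture; protective hits raise ATP signal compared with cytokine alone wells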
[9] = biological target: T1, Ubiquitin-conjugating enzyme E2 N (Homo sapiens, UniProt P61088); type: functional;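 note: Dose-response confirmation in a TR-FRET assay detecting UBC13-driven polyubiquitin chain formation, inhibition measured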
T1 sequence (P61088 whole entry): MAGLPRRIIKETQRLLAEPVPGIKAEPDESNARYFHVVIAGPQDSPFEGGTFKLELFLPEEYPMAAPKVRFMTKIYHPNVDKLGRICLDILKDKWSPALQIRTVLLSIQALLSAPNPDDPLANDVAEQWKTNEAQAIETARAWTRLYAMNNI

[10] = biological target: Multidrug resistance protein CDR2 (Candida albicans (strain SC5314 / ATCC MYA-2876) (Yeast), UniProt P78595); assay: blockers of Nile Red efflux by Candida CDR2 – S. cerevisiae AD1-8u, singleplex, Cherry Pick2 set, dose response (AID 623994); type: functional; conditions: read-out: EC50_MICROM
[11] = biological target: Paired box protein Pax-8 (Homo sapiens, UniProt Q06710); assay: PAX8 transcriptional activity inhibition in RMG-I – RMG-I cells, luciferase, cherry-pick, dose response (AID 687027); type: functional, cell-based;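 note: luciferase reporter driven by Pax8 target thyroperoxidase promoter measured by SteadyGlo luminescence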
[12] = biological target: Melanocortin receptor 4 (Homo sapiens, UniProt P32245); type: functional, cell-based;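 note: Cell-based assay with luminescence read-out, confirmatory dose-response testing for agonist activity of biased ligands at MC4R; human U2OS cells with tagged receptor and beta-arrestin; potency of agonists that increase receptor coupling to beta-arrestin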
[13] = biological target: Integrin alpha-4 (Homo sapiens, UniProt P13612); assay: allosteric modulators of alpha4 integrin VLA-4 – cell-based, LIBS antibody binding, flow cytometry, SAR follow-up (AID 488791); type: functional
[14] = HEK-293T viability loss after treatment – luminescence, T-cell screen hits, cytotoxicity control for TCR NF-kB inhibitor project, dose response (AID 489026); type: functional, cell-based;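 note: cells exposed to compound about 14 hours before the viability readout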
[15] = biological target: E3 ubiquitin-protein ligase Mdm2/Protein Mdm4 (Homo sapiens, UniProt O15151+Q00987); assay: disruption of Mdm2/MdmX protein binding – luminescence detection, dose response (AID 504593); type: functional
E3 ubiquitin-protein ligase Mdm2/Protein Mdm4, sequence (Q00987 whole entry): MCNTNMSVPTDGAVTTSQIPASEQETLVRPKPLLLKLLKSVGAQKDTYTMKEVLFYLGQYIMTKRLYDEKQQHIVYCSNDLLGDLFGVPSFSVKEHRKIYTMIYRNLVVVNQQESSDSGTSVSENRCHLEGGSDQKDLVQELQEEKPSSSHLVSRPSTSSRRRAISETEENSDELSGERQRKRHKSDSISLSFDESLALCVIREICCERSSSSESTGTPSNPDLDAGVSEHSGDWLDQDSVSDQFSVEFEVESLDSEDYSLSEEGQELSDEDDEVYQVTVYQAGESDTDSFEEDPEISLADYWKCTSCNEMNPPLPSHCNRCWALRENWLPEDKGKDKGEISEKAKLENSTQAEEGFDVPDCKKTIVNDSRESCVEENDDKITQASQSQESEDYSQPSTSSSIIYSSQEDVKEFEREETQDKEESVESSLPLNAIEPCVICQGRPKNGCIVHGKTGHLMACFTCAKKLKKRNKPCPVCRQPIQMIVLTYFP
E3 ubiquitin-protein ligase Mdm2/Protein Mdm4, sequence (O15151 whole entry): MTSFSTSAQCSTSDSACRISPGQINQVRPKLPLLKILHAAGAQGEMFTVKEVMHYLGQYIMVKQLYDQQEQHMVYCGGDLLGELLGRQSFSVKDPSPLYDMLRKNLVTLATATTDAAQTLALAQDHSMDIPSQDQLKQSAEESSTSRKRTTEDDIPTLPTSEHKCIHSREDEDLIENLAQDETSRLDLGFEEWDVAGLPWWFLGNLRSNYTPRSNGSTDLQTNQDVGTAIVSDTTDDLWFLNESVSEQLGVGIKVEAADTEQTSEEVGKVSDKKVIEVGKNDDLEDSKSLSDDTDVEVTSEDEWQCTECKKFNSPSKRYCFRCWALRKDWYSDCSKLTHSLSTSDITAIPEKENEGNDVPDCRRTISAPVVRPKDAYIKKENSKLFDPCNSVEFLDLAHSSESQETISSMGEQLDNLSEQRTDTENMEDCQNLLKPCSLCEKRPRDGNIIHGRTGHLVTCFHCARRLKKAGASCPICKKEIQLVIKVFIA

CAAX prenyl protease 2, sequence (Q03530 whole entry): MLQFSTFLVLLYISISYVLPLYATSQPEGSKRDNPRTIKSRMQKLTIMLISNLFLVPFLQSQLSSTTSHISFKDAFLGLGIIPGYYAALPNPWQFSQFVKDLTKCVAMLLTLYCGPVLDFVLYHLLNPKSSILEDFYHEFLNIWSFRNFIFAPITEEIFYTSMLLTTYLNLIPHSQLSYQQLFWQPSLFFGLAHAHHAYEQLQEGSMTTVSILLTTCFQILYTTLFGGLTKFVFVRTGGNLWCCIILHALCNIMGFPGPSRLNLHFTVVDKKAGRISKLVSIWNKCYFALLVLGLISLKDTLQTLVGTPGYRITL
Integrin alpha-4, sequence (P13612 whole entry): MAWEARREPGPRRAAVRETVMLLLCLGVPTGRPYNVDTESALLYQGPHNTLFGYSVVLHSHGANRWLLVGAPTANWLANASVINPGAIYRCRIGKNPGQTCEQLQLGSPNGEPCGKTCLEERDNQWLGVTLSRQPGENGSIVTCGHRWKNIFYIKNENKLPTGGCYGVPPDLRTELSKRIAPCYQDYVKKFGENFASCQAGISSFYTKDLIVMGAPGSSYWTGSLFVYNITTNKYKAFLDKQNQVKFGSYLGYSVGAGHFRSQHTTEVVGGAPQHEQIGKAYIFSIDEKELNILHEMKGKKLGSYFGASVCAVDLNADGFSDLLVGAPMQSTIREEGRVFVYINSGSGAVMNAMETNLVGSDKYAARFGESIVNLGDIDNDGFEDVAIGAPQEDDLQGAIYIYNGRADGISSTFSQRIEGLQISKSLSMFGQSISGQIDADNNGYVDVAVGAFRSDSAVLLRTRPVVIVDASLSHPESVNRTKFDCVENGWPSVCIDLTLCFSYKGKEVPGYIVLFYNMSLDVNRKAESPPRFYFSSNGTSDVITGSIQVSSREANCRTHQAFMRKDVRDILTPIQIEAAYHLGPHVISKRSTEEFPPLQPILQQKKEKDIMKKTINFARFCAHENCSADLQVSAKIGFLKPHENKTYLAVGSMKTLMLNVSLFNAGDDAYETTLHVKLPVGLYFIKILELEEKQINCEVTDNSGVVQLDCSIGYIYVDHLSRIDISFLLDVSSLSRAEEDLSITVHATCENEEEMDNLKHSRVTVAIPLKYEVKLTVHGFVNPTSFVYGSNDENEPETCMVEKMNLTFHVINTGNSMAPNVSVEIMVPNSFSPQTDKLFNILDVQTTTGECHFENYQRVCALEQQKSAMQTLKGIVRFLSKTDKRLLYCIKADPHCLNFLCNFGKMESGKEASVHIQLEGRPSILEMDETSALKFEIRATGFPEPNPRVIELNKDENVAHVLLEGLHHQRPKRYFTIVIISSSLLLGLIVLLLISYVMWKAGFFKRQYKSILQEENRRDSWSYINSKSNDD
Polyadenylate-binding protein 1, sequence (P11940 whole entry): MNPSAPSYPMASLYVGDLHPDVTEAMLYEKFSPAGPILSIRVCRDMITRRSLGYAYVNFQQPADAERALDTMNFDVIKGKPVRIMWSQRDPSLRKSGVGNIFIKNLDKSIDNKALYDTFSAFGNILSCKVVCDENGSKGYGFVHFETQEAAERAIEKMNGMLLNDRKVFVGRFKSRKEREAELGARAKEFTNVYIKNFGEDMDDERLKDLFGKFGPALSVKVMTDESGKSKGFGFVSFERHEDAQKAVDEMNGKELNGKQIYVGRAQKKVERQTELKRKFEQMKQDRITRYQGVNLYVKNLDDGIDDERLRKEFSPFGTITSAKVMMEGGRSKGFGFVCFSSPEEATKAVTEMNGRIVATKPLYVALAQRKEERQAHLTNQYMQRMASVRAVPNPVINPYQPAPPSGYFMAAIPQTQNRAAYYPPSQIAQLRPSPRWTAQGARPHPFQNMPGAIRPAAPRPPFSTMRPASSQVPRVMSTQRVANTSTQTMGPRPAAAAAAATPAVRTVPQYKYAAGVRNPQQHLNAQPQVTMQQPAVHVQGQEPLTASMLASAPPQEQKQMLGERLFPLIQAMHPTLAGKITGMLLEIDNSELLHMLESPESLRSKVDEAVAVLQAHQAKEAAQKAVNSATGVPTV
Paired box protein Pax-8, sequence (Q06710 whole entry): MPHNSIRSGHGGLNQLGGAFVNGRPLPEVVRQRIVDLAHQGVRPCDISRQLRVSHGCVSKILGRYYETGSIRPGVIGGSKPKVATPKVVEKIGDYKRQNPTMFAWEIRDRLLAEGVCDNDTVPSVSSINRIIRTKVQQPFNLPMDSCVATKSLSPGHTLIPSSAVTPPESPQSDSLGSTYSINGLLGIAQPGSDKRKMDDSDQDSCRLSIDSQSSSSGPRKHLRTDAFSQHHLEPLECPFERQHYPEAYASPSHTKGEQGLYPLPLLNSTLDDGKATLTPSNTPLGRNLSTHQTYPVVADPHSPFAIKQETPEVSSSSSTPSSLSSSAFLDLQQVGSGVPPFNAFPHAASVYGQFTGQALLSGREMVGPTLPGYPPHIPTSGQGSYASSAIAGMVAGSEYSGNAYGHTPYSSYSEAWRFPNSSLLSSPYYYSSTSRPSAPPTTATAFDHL
Hexokinase, sequence (Q38C41 whole entry): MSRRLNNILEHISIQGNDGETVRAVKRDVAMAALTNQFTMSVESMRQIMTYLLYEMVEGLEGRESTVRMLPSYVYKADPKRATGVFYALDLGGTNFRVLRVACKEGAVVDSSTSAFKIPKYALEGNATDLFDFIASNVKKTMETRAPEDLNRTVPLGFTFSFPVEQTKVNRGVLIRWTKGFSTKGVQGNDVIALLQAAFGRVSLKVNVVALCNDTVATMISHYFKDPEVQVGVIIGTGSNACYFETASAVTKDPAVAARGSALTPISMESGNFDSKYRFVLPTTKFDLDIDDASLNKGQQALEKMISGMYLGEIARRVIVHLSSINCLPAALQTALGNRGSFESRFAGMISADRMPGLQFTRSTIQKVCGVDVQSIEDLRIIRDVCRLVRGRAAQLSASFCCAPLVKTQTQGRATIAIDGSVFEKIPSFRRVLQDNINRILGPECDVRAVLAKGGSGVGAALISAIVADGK
Melanocortin receptor 4, sequence (P32245 whole entry): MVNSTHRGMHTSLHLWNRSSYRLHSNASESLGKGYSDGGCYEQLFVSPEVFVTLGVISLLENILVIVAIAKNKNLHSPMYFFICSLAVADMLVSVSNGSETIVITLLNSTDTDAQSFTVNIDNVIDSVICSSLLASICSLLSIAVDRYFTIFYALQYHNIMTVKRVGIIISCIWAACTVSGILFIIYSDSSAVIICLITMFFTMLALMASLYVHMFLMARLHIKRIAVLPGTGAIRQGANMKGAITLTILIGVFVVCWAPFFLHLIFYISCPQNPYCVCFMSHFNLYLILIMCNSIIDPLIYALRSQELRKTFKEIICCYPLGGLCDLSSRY
Trypsin, sequence (P00761 whole entry): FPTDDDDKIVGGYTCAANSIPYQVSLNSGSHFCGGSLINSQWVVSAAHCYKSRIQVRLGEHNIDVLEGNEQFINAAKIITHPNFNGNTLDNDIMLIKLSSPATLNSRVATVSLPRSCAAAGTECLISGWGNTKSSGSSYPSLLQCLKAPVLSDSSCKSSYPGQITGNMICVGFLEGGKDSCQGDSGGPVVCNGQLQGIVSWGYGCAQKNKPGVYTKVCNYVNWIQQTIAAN

For `COc1cc(Cl)c(C)cc1NC(=O)COC(=O)c1ccc(NC(N)=O)cc1`, the IC50 [1] was > 100 µM (inactive) and the IC50 [2] was > 100 µM (inactive).
For `COc1ccc(C(=O)Nc2cc(OC)ccc2C(=O)O)cc1`, the IC50 [3] was > 25 µM (inactive).
With `Cc1ccc(C(=O)c2c3ccc(C(F)(F)F)cc3nn2CCC(N)=O)cc1` the AC50 [4] was > 100 µM (inactive) and the AC50 [5] was 3.73 µM (active).
For `COc1ccc(-c2sc3ccccc3c2-c2ccc(OCCN(C)C)cc2)cc1`, the AC50 [6] was 3.45 µM (active), the AC50 [7] was 1.69 µM (active) and the AC50 [8] was 8.01 µM (active). The IC50 [9] was > 20 µM (inactive), the EC50 [10] was 57.1 µM (active) and the AC50 [11] was 13 µM (active). For the same molecule, the EC50 [12] was > 89.2 µM (inactive) and the EC50 [13] was > 57 µM (inactive).
In the case of `CCOC(=O)c1ccc(Nc2nc(N)c3cc(OC)c(OC)cc3n2)cc1`, the IC50 [14] is reported as > 80 µM (inactive) and the IC50 [15] is reported as > 79 µM (inactive).

From ChEMBL document CHEMBL1201862, “PubChem BioAssay data set” (2004)
